This note sets out measurements from the OligoGym collection.

These antisense oligonucleotides have a phosphorothioate backbone; sugars and methylation of C are not fully specified.

Targets include XIAP; PTPN6; MAP3K5; MAP2K2.
Common to all, as to settings: ASO
Further: test concentration or dose not given here.

Consider AAAAGTCATCTTCTCTTGAA, for which the remaining target (mRNA or protein) (fraction of control) in the data set with XIAP worked out at 0.58.

In the case of AAACTGTTAAAAGTCATCTT, the remaining target (mRNA or protein) (fraction of control) in the data set with XIAP worked out at 0.81.

Take AACCACCCACGGGACAGCAT: the remaining target (mRNA or protein) (fraction of control) with PTPN6 came to 0.47.

As to AAGAAGATCAGCTCTGTATT, the remaining target (mRNA or protein) (fraction of control) with MAP3K5 was 0.49.

Regarding AAGTCATCTTCTCTTGAAAA, in the data set with XIAP, the remaining target (mRNA or protein) (fraction of control) was 0.6.

Sequence AATCTGCAATTTGGGGATAC yielded a remaining target (mRNA or protein) (fraction of control) with XIAP of 0.93.

Sequence ACAATACATGGCAGGGTTCC displayed a remaining target (mRNA or protein) (fraction of control) with XIAP of 0.41.

ACCGGCTTATAGTGTCTTCA: the remaining target (mRNA or protein) (fraction of control) in the data set with MAP3K5 is 0.73.

Regarding ACTGTTAAAAGTCATCTTCT, the remaining target (mRNA or protein) (fraction of control) with XIAP was 0.87.

AGAAAATGGACAGAATCCTA showed a remaining target (mRNA or protein) (fraction of control) in the data set with XIAP of 0.74.

Regarding AGCATGTTGTTCCCAAGGGT, the remaining target (mRNA or protein) (fraction of control) with XIAP came to 0.54.

With AGGGTTTCCAGGGTGGCGCC, in the data set with MAP3K5, the remaining target (mRNA or protein) (fraction of control) stood at 0.52.

For AGTAAACAAATACTGGATTT, the remaining target (mRNA or protein) (fraction of control) with MAP3K5 was determined as 0.77.

For the sequence ATGATCTGGTTCCGGATG, the remaining target (mRNA or protein) (fraction of control) with MAP2K2 worked out at 0.35.

As to ATGTCATTGAGTATAGATTC, in the data set with MAP3K5, the remaining target (mRNA or protein) (fraction of control) was 0.69.

Turning to ATGTTGTTGGCCATGCTGAA, the remaining target (mRNA or protein) (fraction of control) with MAP3K5 was determined as 0.31.

In turn, ATTCGTATAGCTTCTTGTAC had a remaining target (mRNA or protein) (fraction of control) with XIAP of 0.61.

Turning to ATTTATAGTTGCTCCCAGAT, the remaining target (mRNA or protein) (fraction of control) with XIAP was 0.58.

ATTTGTTAAGCCTATCTGAA registered a remaining target (mRNA or protein) (fraction of control) with XIAP of 0.66.

Sequence CAAAACTGTTAAAAGTCATC showed a remaining target (mRNA or protein) (fraction of control) with XIAP of at least 1.

In the data set with MAP3K5, CAAATTCTCTGAGGCTTGCA had a remaining target (mRNA or protein) (fraction of control) of 0.54.

For CAAATTTAGAAATACTCACT, the remaining target (mRNA or protein) (fraction of control) with MAP3K5 came out at 0.85.

Sequence CAACTAAAACACTGCCATGT showed a remaining target (mRNA or protein) (fraction of control) with XIAP of 0.54.

Turning to CACTCCTCAAGTGAATGAGT, in the data set with XIAP, the remaining target (mRNA or protein) (fraction of control) turned out to be 0.52.

CACTGCTCGAGGAGGTGGCC displayed a remaining target (mRNA or protein) (fraction of control) with MAP3K5 of 0.47.

In the data set with MAP2K2, CACTTCTTCCACCTCGGA showed a remaining target (mRNA or protein) (fraction of control) of 0.31.

Take CAGATGTCCGACTGCACC: the remaining target (mRNA or protein) (fraction of control) with MAP2K2 was determined as 0.32.

For the sequence CAGCTCAAGGGCGCCGCGCT, the remaining target (mRNA or protein) (fraction of control) with MAP3K5 came out at 0.59.

Sequence CAGTAACATCTGTCTTTGTG gave a remaining target (mRNA or protein) (fraction of control) with MAP3K5 of 0.62.

Sequence CATCAACAAGCAAGTCGTTA showed a remaining target (mRNA or protein) (fraction of control) with MAP3K5 of 0.37.

CATCTCTCCGGGCCGGGCAG came in with a remaining target (mRNA or protein) (fraction of control) with MAP3K5 of 0.61.

Turning to CATCTTCTCTTGAAAATAGG, in the data set with XIAP, the remaining target (mRNA or protein) (fraction of control) was determined as 0.9.

Consider CCAGAAGCTGCCCGGCGGCG, for which the remaining target (mRNA or protein) (fraction of control) with MAP3K5 was 0.56.

For the sequence CCAGGCACGATCACAAGGTT, the remaining target (mRNA or protein) (fraction of control) with XIAP is at least 1.

Sequence CCGAATTCCCTTGACATCTC came in with a remaining target (mRNA or protein) (fraction of control) with MAP3K5 of 0.62.

As for CCGTTGCCCGCGCCCAGC, the remaining target (mRNA or protein) (fraction of control) with MAP2K2 is 0.24.

Consider CCTCCGTGCTCATCTCTCCG, for which the remaining target (mRNA or protein) (fraction of control) with MAP3K5 worked out at 0.09.

For CGCCTCCGTGCTCATCTCTC, in the data set with MAP3K5, the remaining target (mRNA or protein) (fraction of control) was determined as 0.1.

Take CGCTGCCCGGCGGCGGCTCG: the remaining target (mRNA or protein) (fraction of control) with MAP3K5 is 0.78.

Sequence CGGTCGGTCGGCTCGAAT gave a remaining target (mRNA or protein) (fraction of control) with MAP2K2 of 0.8.

Take CGTCCGCCTCCGTGCTCATC: in the data set with MAP3K5, the remaining target (mRNA or protein) (fraction of control) is 0.12.

With CGTGCCCACGAAGGAGTT, the remaining target (mRNA or protein) (fraction of control) with MAP2K2 stood at 0.26.

On to CGTGCTCATCTCTCCGGGCC, for which the remaining target (mRNA or protein) (fraction of control) in the data set with MAP3K5 came out at 0.12.

CGTTCACAATATAGTCCA: in the data set with MAP2K2, the remaining target (mRNA or protein) (fraction of control) worked out at 0.4.

Consider CTATCATTAAATACGCTTTC, for which the remaining target (mRNA or protein) (fraction of control) with XIAP amounted to 0.99.

With CTCATCTCTCCGGGCCGGGC, the remaining target (mRNA or protein) (fraction of control) in the data set with MAP3K5 turned out to be 0.3.

Take CTCCCAGTTCATAAAATGGG: the remaining target (mRNA or protein) (fraction of control) with MAP3K5 was 0.85.

CTCCTTCTTCCCCGTCGA showed a remaining target (mRNA or protein) (fraction of control) with MAP2K2 of 0.4.

Regarding CTCTGTCACCATTTTCATCA, the remaining target (mRNA or protein) (fraction of control) in the data set with MAP3K5 stood at 0.41.

CTGGTTCAGCCGCAGGGT displayed a remaining target (mRNA or protein) (fraction of control) with MAP2K2 of 0.34.

On to CTGTGCTGGACTTTGGTG, for which the remaining target (mRNA or protein) (fraction of control) with MAP2K2 came to 0.42.

In the case of CTTCCTCCGGGCCAGCAT, the remaining target (mRNA or protein) (fraction of control) with MAP2K2 was determined as 0.37.

In the data set with MAP2K2, CTTCTGCTGCTCGTCAAG had a remaining target (mRNA or protein) (fraction of control) of 0.65.

In turn, CTTGAGGTACCATGCTGGTG came in with a remaining target (mRNA or protein) (fraction of control) with MAP3K5 of 0.36.

In turn, GAAATTCCTATCAGAACTCA displayed a remaining target (mRNA or protein) (fraction of control) in the data set with XIAP of 0.76.

In turn, GAACTATCTGATTGTCATGG came in with a remaining target (mRNA or protein) (fraction of control) with MAP3K5 of 0.83.

The sequence GAAGCCGGGTGAGCGGGAAG displayed a remaining target (mRNA or protein) (fraction of control) in the data set with MAP3K5 of 0.34.

Take GAGGTACGCCAAGCCCCG: the remaining target (mRNA or protein) (fraction of control) in the data set with MAP2K2 was 0.11.
